Source: publication PMC10770036, “Novel dual inhibitors of PARP and HDAC induce intratumoral STING-mediated antitumor immunity in triple-negative breast cancer” (Cell Death & Disease, 2024)

How the values were obtained:
[1] = target: T1, recombinant HDAC1 (Homo sapiens, UniProt Q13547); experiment: HDAC1 inhibition assay (Ac-peptide-AMC fluorescence); type: biochemical
T1 construct: purchased Active Motif
Protocol: The in vitro HDAC inhibition assays were carried out by Sundia MediTech Co. Ltd. in Shanghai, China. […] Reactions were stopped with trypsin, and the samples were incubated for another 90 min at 37 °C. […] IC50 values were obtained using GraphPad Prism software.

[2] = system: MDA-MB-231 cells; experiment: MTT cell viability assay, MDA-MB-231; conditions: Homo sapiens, MDA-MB-231, 72 h, read-out: IC50 MDA-MB-231
Protocol: (§1) The viability assay was measured by a 3-(4,5-dimethylthiazol-2-yl)−2,5-diphenyltetrazolium bromide (MTT) assay.
(§2) In brief, cells were seeded at a density of 6,000 cells in 96-well plates and cultured overnight. […] After aspiration of the medium, the formazan crystals were dissolved in 100 μL of DMSO. The absorbance at 490 nm was measured using a microplate reader (BioTek). All these analyses were performed at least three times.

[3] = system: MDA-MB-436, MDA-MB-231, and MDA-MB-468 cells; experiment: Colony formation assay; type: cell-based, human; conditions: approximately 14 days
Protocol: MDA-MB-231, MDA-MB-436 and MDA-MB-468 cells were seeded at a density of 2,000 cells in 6-well plates and cultured overnight. […] The cells were fixed with 4% paraformaldehyde (Merck) for 1 h at room temperature and stained with 0.1% crystal violet (Beyotime Biotechnology) for 30 min. Under an inverted phase contrast microscope (Leica Microsystems, Heidelberg, Germany), cell colonies were photographed at 5× magnification. All these analyses were performed at least three times.

[4] = system: MCF-10A cells; experiment: MTT cell viability assay, MCF-10A; conditions: Homo sapiens, 72 h, read-out: IC50 MCF-10A
Protocol: as §1, §2

[5] = system: p-H2A.X; experiment: Western blot of H2A.X phosphorylation (DNA damage) in TNBC cells; type: cell-based, human; conditions: TNBC cell lines, 48 h
Protocol: Western blot analysis was performed as previously described, and all western blot analyses were performed at least three times.
Western blot analysis was performed as previously described. Briefly, whole cell or tissue lysates were prepared using ice-cold Nonidet P-40 buffer mixed with protease and phosphatase inhibitors (Roche, IN, USA) and centrifuged at 14,000 × g at 4 °C for 10 min. The protein lysates were fractionated by sodium dodecyl sulfate–polyacrylamide gel electrophoresis (SDS–PAGE) and transferred to polyvinylidene fluoride (PVDF) membranes (Merck, Darmstadt, Germany). Membranes were incubated in 1× TBST buffer containing 5% nonfat powdered milk at room temperature for 2 h. The indicated primary antibody was incubated with PVDF membranes, followed by a washing step using 1× TBST and a secondary antibody conjugated to HRP. Signal detection was carried out using the Western ECL Substrate kit (Bio-Rad, Hercules, CA, USA). […]

[6] = system: MCF-7 cells; experiment: MTT cell viability assay, MCF-7; conditions: Homo sapiens, MCF7, 72 h, read-out: IC50 MCF-7
Protocol: as §1, §2

[7] = target: T2, PARP1 (Homo sapiens, UniProt P09874); experiment: PARP1 enzymatic inhibition assay (PARP1 Colorimetric Assay Kit); type: biochemical
T2 construct: purchased BPS Bioscience 80580
T2 sequence (P09874 whole entry): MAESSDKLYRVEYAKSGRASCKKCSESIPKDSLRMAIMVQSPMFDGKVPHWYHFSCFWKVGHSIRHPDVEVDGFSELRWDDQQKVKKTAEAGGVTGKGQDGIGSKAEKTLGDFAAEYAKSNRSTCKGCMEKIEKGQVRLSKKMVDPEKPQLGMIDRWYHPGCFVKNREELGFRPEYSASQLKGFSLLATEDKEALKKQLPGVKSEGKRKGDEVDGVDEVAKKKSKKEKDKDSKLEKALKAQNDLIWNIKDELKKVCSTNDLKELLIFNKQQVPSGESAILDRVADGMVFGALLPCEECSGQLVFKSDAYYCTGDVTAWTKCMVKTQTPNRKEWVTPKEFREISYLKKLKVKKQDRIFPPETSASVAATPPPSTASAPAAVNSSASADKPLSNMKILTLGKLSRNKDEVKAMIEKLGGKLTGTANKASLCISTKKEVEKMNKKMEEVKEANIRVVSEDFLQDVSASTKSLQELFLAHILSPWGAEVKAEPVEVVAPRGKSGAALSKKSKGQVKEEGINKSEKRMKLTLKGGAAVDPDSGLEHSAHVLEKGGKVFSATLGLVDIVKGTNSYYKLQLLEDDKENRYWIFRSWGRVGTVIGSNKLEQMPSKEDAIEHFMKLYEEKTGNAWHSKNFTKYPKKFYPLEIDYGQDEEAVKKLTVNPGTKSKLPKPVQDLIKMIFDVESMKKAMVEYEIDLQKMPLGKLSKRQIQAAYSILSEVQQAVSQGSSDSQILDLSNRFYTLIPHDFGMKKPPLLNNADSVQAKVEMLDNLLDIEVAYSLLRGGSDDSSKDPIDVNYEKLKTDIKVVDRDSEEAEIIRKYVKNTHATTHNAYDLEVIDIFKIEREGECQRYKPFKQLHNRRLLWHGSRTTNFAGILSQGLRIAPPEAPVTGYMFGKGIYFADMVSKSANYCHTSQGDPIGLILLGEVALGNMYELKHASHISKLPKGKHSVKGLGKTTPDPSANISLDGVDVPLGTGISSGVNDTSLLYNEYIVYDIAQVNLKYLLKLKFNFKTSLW
Protocol: Briefly, the 1× histone mixture was added to each well and incubated overnight at 4 °C. Each well was washed three times with 200 µL 1× TBST buffer and filled with 200 µL Blocking buffer at room temperature for 90 min. Then, each well was filled with 25 µL of PARP master mixture (5 μL activated DNA + 2.5 μL 10× PARP Assay mixture + 2.5 μL 10× PARP buffer + 15 μL distilled water). Next, 5 µL of the compound of different concentrations was added to each well, and PARP enzyme was added and incubated at room temperature for 1 h. Next, streptavidin HRP solution was added and incubated at room temperature for 30 min. After adding 100 µL of colorimetric HRP substrate to each well, the plate was incubated until a blue color developed in the positive well, which contained PARP enzyme without inhibitors. The reaction was then quenched with 2 M sulfuric acid, and absorbance at 450 nm was measured using a microplate reader (BioTek, Winooski, VT, USA). After calculating the inhibition rate, the IC50 value was determined.

[8] = system: MDA-MB-468 cells; experiment: MTT cell viability assay, MDA-MB-468; conditions: Homo sapiens, MDA-MB-468, 72 h, read-out: IC50 MDA-MB-468
Protocol: as §1, §2

T1 sequence (Q13547 whole entry): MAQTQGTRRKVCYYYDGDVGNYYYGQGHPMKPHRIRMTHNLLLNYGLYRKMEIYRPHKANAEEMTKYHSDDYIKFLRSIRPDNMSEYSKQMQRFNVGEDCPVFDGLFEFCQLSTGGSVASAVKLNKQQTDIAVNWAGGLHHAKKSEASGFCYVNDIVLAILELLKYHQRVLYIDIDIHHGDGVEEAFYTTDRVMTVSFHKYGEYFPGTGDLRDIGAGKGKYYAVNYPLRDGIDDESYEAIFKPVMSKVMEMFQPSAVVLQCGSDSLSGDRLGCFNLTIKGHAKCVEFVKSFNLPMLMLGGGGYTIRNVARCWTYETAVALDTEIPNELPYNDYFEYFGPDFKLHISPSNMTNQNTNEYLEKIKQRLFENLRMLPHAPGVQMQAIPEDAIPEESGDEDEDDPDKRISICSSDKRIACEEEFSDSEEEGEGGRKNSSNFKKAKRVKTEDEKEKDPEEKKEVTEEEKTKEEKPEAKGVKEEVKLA

IC50 [1] | IC50 [2] | IC50 [6] | IC50 [7] | IC50 [8] | Structure (SMILES) | colony formation of TNBC cells [3] | IC50 [4] | p-H2A.X levels (DNA DSBs) [5]
1.69 µM | 0.16 ± 0.02 µM | 13.4 ± 3.2 µM | 0.019 µM | 0.27 ± 0.11 µM | Nc1cc(F)ccc1NC(=O)/C=C/c1ccc(CN2CCN(C(=O)c3cc(Cc4n[nH]c(=O)c5ccccc45)ccc3F)CC2)cc1 [Compound B102] | reduction in colony formation | 13.7 ± 0.23 µM | increased p-H2A.X (S136) levels
> 10 µM | 2.83 ± 0.4 µM | 4.93 ± 1.09 µM | 0.0127 µM | 1.27 ± 0.58 µM | Nc1cc(F)ccc1NC(=O)CCc1ccc(CN2CCN(C(=O)c3cc(Cc4n[nH]c(=O)c5ccccc45)ccc3F)CC2)cc1 [Compound B302] | reduction in colony formation | 36.8 ± 6.59 µM | increased p-H2A.X (S136) levels
